# Values of other authors as cited in patent US20240082463A1, “COATED MEDICAL PRODUCT” (HEMOTEQ AG, priority 2020, published 2024).
# Like-named read-outs stand apart in the source and are kept apart here.
# Settings: cited from earlier work
smiles,measurement,setting,value
"C1COCCO1 [1,4-Dioxane]",logKOW,"Table 6, rounded values",−0.4
same,logKOW,Table 7,−0.42
same,log KOW,,about −0.4
CCCCc1ccccc1 [1-Phenylbutane],logKOW,Table 4,3.4
"CC(C)CC(C)(C)C [2,2,4-Trimethylpentane]",logKOW,"Table 2, rounded values",4.1
"CCC(C)(C)C [2,2-Dimethylbutane]",logKOW,"Table 2, rounded values",3.8
"CCCC(C)(C)C [2,2-Dimethylpentane]",logKOW,"Table 2, rounded values",3.8
"CCC(C)C(C)C (stereo not shown) [2,3-Dimethylpentane]",logKOW,"Table 2, rounded values",3.8
CC(C)Cc1ccccc1 [2-Methyl-1-phenylpropane],logKOW,Table 4,3.4
CCCCC(C)C [2-Methylhexane],logKOW,"Table 2, rounded values",3.7
CCCC(C)C [2-Methylpentane],logKOW,"Table 2, rounded values",3.6
CCC(C)c1ccccc1 (stereo not shown) [2-Phenylbutane],logKOW,Table 4,3.4
CC(C)=O [Acetone],logKOW,"Table 6, rounded values",−0.2
same,logKOW,Table 7,−0.24
CC#N [Acetonitrile],logKOW,"Table 6, rounded values",−0.3
same,logKOW,Table 7,−0.34
COc1ccccc1 [Anisol],logKOW,Table 4,2.1
ClC(Cl)(Cl)Cl [Carbon tetrachloride],logKOW,"Table 3, rounded orientation values",approx. 2.8
same,logKOW,Table 4,2.8
Clc1ccccc1 [Chlorobenzene],logKOW,Table 4,2.9
same,log KOW,,about 2.9
CC(C)c1ccccc1 [Cumol],logKOW,Table 4,3.4
C1CCCCCCCCC1 [Cyclodecane],logKOW,"Table 2, rounded values",5.5
C1CCCCCC1 [Cycloheptane],logKOW,"Table 2, rounded values",4
C1CCCCCCCC1 [Cyclononan],logKOW,"Table 2, rounded values",5.1
C1CCCC1 [Cyclopentane],logKOW,"Table 2, rounded values",3.0
same,logKOW,Table 8,3.00
CCCCCCCCCC [Decan],logKOW,"Table 2, rounded values",6.3
ClCCl [Dichloromethane],logKOW,"Table 6, rounded values",+1.3
same,logKOW,Table 7,1.25
CCOCC [Diethyl ether],logKOW,"Table 6, rounded values",+0.9
same,logKOW,Table 7,0.89
CCCOCCC [Dipropyl ether],logKOW,"Table 6, rounded values",+2.0
CCOc1ccccc1 [Ethoxybenzene],logKOW,Table 4,2.5
CCOC(C)=O [Ethyl acetate],logKOW,"Table 6, rounded values",+0.7
same,logKOW,Table 7,0.73
CCc1ccccc1 [Ethylbenzene],logKOW,Table 4,3.2
OCC(O)CO [Glycerin],logKOW,"Table 6, rounded values",−1.8
CCCCCCC [Heptane],logKOW,"Table 2, rounded values",4.5
same,logKOW,Table 8,4.50
CCC(C)C [Isopentane],logKOW,"Table 2, rounded values",3.2
CO [Methanol],logKOW,"Table 6, rounded values",−0.7
same,logKOW,Table 7,−0.74
COC(C)=O [Methyl acetate],logKOW,"Table 6, rounded values",+0.2
CC1CCCCC1 [Methylcyclohexane],logKOW,"Table 2, rounded values",3.9
CC1CCCC1 [Methylcyclopentane],logKOW,"Table 2, rounded values",3.4
CN1CCCC1=O [N-methylpyrrolidone],logKOW,"Table 6, rounded values",−0.5
CCCCCCCCC [Nonan],logKOW,"Table 2, rounded values",5.7
CCCCCCCC [Octane],logKOW,"Table 2, rounded values",5.2
CCC(=O)O [Propionic acid],logKOW,Table 7,0.32
"CCC(C)=O [Solution 2-Butanone, 2-Butanone]",logKOW,Table 7,0.29
"CCCC(C)=O [Solution 2-Pentanone, 2-Pentanone]",logKOW,"Table 6, rounded values",+0.9
same,logKOW,Table 7,0.84
FC(F)(F)C(F)(F)C(F)(F)C(F)(F)C(F)(F)C(F)(F)F [Tetradecafluorohexane],logKOW,Table 4,5.8
"C1CCOC1 [Tetrahydrofuran (THF), Tetrahydrofuran]",logKOW,"Table 6, rounded values",+0.5
same,logKOW,Table 7,0.46
O [Water],logKOW,"Table 5, rounded orientation values",approx. −1.4
CC(C)Cc1ccccc1 [iso-butylbenzene],logKOW,Table 4,4.1
Cc1cccc(C)c1 [m-Xylene],logKOW,Table 4,3.2
same,logKOW,Table 8,3.20
CCCOC(C)=O [n-Propyl acetate],logKOW,"Table 6, rounded values",+1.4
Clc1ccccc1Cl [o-Dichlorobenzene],logKOW,Table 4,3.4
Cc1ccccc1C [o-Xylene],logKOW,Table 4,3.1
same,logKOW,Table 8,3.12
Cc1ccc(C)cc1 [p-Xylene],logKOW,Table 4,3.2
same,logKOW,Table 8,3.15
CC(C)(C)C1CCCCC1 [tert-butylcyclohexane],logKOW,"Table 2, rounded values",4.0
